Experimental findings from PMC5218480 (PLoS ONE, 2017) are described below.

Structures are written as SMILES.

The test system of the test is MV-4-11 cells. As to the kind of experiment: Gene expression microarray analysis (Affymetrix PrimeView) and GSEA. Also noted: RFU PODN (11730768_x_at) / Fold change /veh PODN (11730768_x_at) / RFU LINC00158 (11744669_a_at) / Fold change /veh LINC00158 (11744669_a_at) / RFU DUSP10 (11751237_a_at) / Fold change /veh DUSP10 (11751237_a_at) / RFU ID3 (11757404_x_at) / Fold change /veh ID3 (11757404_x_at) / RFU PLEKHG5 (11737974_s_at) / Fold change /veh PLEKHG5 (11737974_s_at) / RFU LRRC4B (11730491_at) / Fold change /veh LRRC4B (11730491_at) / RFU GIMAP4 (11747438_a_at) / Fold change /veh GIMAP4 (11747438_a_at) / RFU KRT8 (11758183_x_at) / Fold change /veh KRT8 (11758183_x_at) / RFU CNN1 (11734310_a_at) / Fold change /veh CNN1 (11734310_a_at) / RFU VPS37D (11726825_at) / Fold change /veh VPS37D (11726825_at) / RFU C10orf10 (11716522_x_at) / Fold change /veh C10orf10 (11716522_x_at) / RFU KIR2DL2 /// KIR2DL4 /// KIR2DL5A /// KIR2DL5B /// KIR2DS1 /// KIR2DS2 /// KIR2DS3 /// KIR2DS4 /// KIR3DL3 /// KIR3DL3 /// KIR3DS1 (11738374_at) / Fold change /veh KIR2DL2 /// KIR2DL4 /// KIR2DL5A /// KIR2DL5B /// KIR2DS1 /// KIR2DS2 /// KIR2DS3 /// KIR2DS4 /// KIR3DL3 /// KIR3DL3 /// KIR3DS1 (11738374_at) / RFU C1QL1 (11718748_at) / Fold change /veh C1QL1 (11718748_at) / RFU TMPRSS4 (11747572_a_at) / Fold change /veh TMPRSS4 (11747572_a_at) / RFU HAMP (11756126_x_at) / Fold change /veh HAMP (11756126_x_at) / RFU RNFT2 (11725882_a_at) / Fold change /veh RNFT2 (11725882_a_at) / RFU NR4A2 (11747474_a_at) / Fold change /veh NR4A2 (11747474_a_at) / RFU ABCC12 (11746883_a_at) / Fold change /veh ABCC12 (11746883_a_at) / RFU TMEM136 (11760407_x_at) / Fold change /veh TMEM136 (11760407_x_at) / RFU CLDN22 /// WWC2 (11732394_at) / Fold change /veh CLDN22 /// WWC2 (11732394_at) / RFU HLA-DPB1 (11760878_x_at) / Fold change /veh HLA-DPB1 (11760878_x_at) / RFU SPINT1 (11716480_a_at) / Fold change /veh SPINT1 (11716480_a_at) / RFU GAP43 (11754022_s_at) / Fold change /veh GAP43 (11754022_s_at) / RFU A4GNT (11735810_at) / Fold change /veh A4GNT (11735810_at) / RFU PRB3 (11715151_x_at) / Fold change /veh PRB3 (11715151_x_at) / RFU TUBB4B (11761932_at) / Fold change /veh TUBB4B (11761932_at) / RFU CAPN14 (11732068_a_at) / Fold change /veh CAPN14 (11732068_a_at) / RFU TMCC2 (11721928_a_at) / Fold change /veh TMCC2 (11721928_a_at) / RFU IRGQ (11745062_a_at) / Fold change /veh IRGQ (11745062_a_at) / RFU FAM174B (11720279_a_at) / Fold change /veh FAM174B (11720279_a_at) / RFU TMPRSS4 (11748680_a_at) / Fold change /veh TMPRSS4 (11748680_a_at) / RFU FAM212B (11763350_a_at) / Fold change /veh FAM212B (11763350_a_at) / RFU PLEKHG5 (11743358_a_at) / Fold change /veh PLEKHG5 (11743358_a_at) / RFU ZSCAN30 (11745921_a_at) / Fold change /veh ZSCAN30 (11745921_a_at) / RFU CMKLR1 (11741424_a_at) / Fold change /veh CMKLR1 (11741424_a_at) / RFU LOC101060620 /// MAPK8IP1 (11723275_at) / Fold change /veh LOC101060620 /// MAPK8IP1 (11723275_at) / RFU SPTSSB (11747773_x_at) / Fold change /veh SPTSSB (11747773_x_at) / RFU PRSS12 (11739890_at) / Fold change /veh PRSS12 (11739890_at) / RFU BIN1 (11741810_x_at) / Fold change /veh BIN1 (11741810_x_at) / RFU WNT11 (11732464_a_at) / Fold change /veh WNT11 (11732464_a_at) / RFU C10orf10 (11716521_a_at) / Fold change /veh C10orf10 (11716521_a_at) / RFU C5orf56 (11738089_at) / Fold change /veh C5orf56 (11738089_at) / RFU CYB561 (11721691_x_at) / Fold change /veh CYB561 (11721691_x_at) / RFU ANKRD19P (11752326_a_at) / Fold change /veh ANKRD19P (11752326_a_at) / RFU OR2T12 /// OR2T33 /// OR2T8 (11738714_s_at) / Fold change /veh OR2T12 /// OR2T33 /// OR2T8 (11738714_s_at) / RFU VCAN (11748164_a_at) / Fold change /veh VCAN (11748164_a_at) / RFU JSRP1 (11732532_at) / Fold change /veh JSRP1 (11732532_at) / RFU KRTAP10-11 (11738290_x_at) / Fold change /veh KRTAP10-11 (11738290_x_at) / RFU MYO3A (11730013_a_at) / Fold change /veh MYO3A (11730013_a_at) / RFU EBF3 (11725865_a_at) / Fold change /veh EBF3 (11725865_a_at) / RFU CAMK2N1 (11719241_x_at) / Fold change /veh CAMK2N1 (11719241_x_at) / RFU C5orf56 (11738088_a_at) / Fold change /veh C5orf56 (11738088_a_at) / RFU OLFML3 (11715873_a_at) / Fold change /veh OLFML3 (11715873_a_at) / RFU LOC100653217 /// NTM (11731650_a_at) / Fold change /veh LOC100653217 /// NTM (11731650_a_at) / RFU MAPK11 (11762145_a_at) / Fold change /veh MAPK11 (11762145_a_at) / RFU FIZ1 (11724087_x_at) / Fold change /veh FIZ1 (11724087_x_at) / RFU OASL (11726364_x_at) / Fold change /veh OASL (11726364_x_at) / RFU SOX15 (11748057_x_at) / Fold change /veh SOX15 (11748057_x_at) / RFU CD79A (11719716_a_at) / Fold change /veh CD79A (11719716_a_at) / RFU HIST1H1D (11736915_at) / Fold change /veh HIST1H1D (11736915_at) / RFU CASKIN2 (11723855_a_at) / Fold change /veh CASKIN2 (11723855_a_at) / RFU LOC730098 (11760151_x_at) / Fold change /veh LOC730098 (11760151_x_at) / RFU OR4N2 (11742367_at) / Fold change /veh OR4N2 (11742367_at) / RFU PRRT2 (11749266_a_at) / Fold change /veh PRRT2 (11749266_a_at) / RFU SNX32 (11753110_a_at) / Fold change /veh SNX32 (11753110_a_at) / RFU CDHR5 (11726645_a_at) / Fold change /veh CDHR5 (11726645_a_at) / RFU RCAN1 (11760418_a_at) / Fold change /veh RCAN1 (11760418_a_at) / RFU FAM167A (11723789_a_at) / Fold change /veh FAM167A (11723789_a_at) / RFU FAM26E (11764081_at) / Fold change /veh FAM26E (11764081_at) / RFU ISYNA1 (11749810_s_at) / Fold change /veh ISYNA1 (11749810_s_at) / RFU ACY1 (11761880_at) / Fold change /veh ACY1 (11761880_at) / RFU 11764098_at / Fold change /veh 11764098_at / RFU SAMD14 (11745864_x_at) / Fold change /veh SAMD14 (11745864_x_at) / RFU NPB (11741838_a_at) / Fold change /veh NPB (11741838_a_at) / RFU TMPRSS6 (11731388_a_at) / Fold change /veh TMPRSS6 (11731388_a_at) / RFU KRTAP10-2 (11738614_at) / Fold change /veh KRTAP10-2 (11738614_at) / RFU ARHGAP8 /// PRR5-ARHGAP8 (11727945_x_at) / Fold change /veh ARHGAP8 /// PRR5-ARHGAP8 (11727945_x_at) / RFU KRTAP5-7 /// NADSYN1 (11734609_at) / Fold change /veh KRTAP5-7 /// NADSYN1 (11734609_at) / RFU RASL12 (11751679_a_at) / Fold change /veh RASL12 (11751679_a_at) / RFU CDKN2B (11736163_a_at) / Fold change /veh CDKN2B (11736163_a_at) / RFU PRF1 (11729649_at) / Fold change /veh PRF1 (11729649_at) / RFU, ZNF638 /// ZNF638-IT1 / Fold change vs veh, ZNF638 /// ZNF638-IT1 / RFU, PANK3 / Fold change vs veh, PANK3 / RFU, SH3YL1 / Fold change vs veh, SH3YL1 / RFU, ZEB2 / Fold change vs veh, ZEB2 / RFU, NRIP1 / Fold change vs veh, NRIP1 / RFU, PTTG1IP / Fold change vs veh, PTTG1IP / RFU, CAPN2 / Fold change vs veh, CAPN2 / RFU, MED14 / Fold change vs veh, MED14 / RFU, SNORA58 / Fold change vs veh, SNORA58 / RFU, C1orf63 / Fold change vs veh, C1orf63 / RFU, LRRFIP1 / Fold change vs veh, LRRFIP1 / RFU, NDUFAF7 / Fold change vs veh, NDUFAF7 / RFU, SLC12A2 / Fold change vs veh, SLC12A2 / RFU, IBTK / Fold change vs veh, IBTK / RFU, ESF1 / Fold change vs veh, ESF1 / Fold change vs veh, TMEM50B / RFU, TAOK1 / Fold change vs veh, TAOK1 / RFU, ACBD3 / Fold change vs veh, ACBD3 / RFU, TMA16 / Fold change vs veh, TMA16 / RFU, RWDD3 / Fold change vs veh, RWDD3 / RFU, BCAT1 / Fold change vs veh, BCAT1 / RFU, EDEM3 / Fold change vs veh, EDEM3 / RFU, TMEM33 / Fold change vs veh, TMEM33 / RFU, WDR75 / Fold change vs veh, WDR75 / RFU, AHCTF1 / Fold change vs veh, AHCTF1 / RFU, TFRC / Fold change vs veh, TFRC / RFU, ZDHHC17 / Fold change vs veh, ZDHHC17 / RFU, NOM1 / Fold change vs veh, NOM1 / RFU, ARL8B / Fold change vs veh, ARL8B / RFU, ZBTB11 / Fold change vs veh, ZBTB11 / RFU, TAMM41 / Fold change vs veh, TAMM41 / RFU, KIAA1704 /// LOC100996395 / Fold change vs veh, KIAA1704 /// LOC100996395 / RFU, ING1 / Fold change vs veh, ING1 / RFU, TRMT61B / Fold change vs veh, TRMT61B / RFU, FUBP3 / Fold change vs veh, FUBP3 / RFU, TP53 / Fold change vs veh, TP53 / RFU, TNKS2 / Fold change vs veh, TNKS2 / RFU, ZFP14 / Fold change vs veh, ZFP14 / RFU, ACTR2 / Fold change vs veh, ACTR2 / RFU, PPP3R1 / Fold change vs veh, PPP3R1 / RFU, PIK3R1 / Fold change vs veh, PIK3R1 / RFU, HNRNPA1 / Fold change vs veh, HNRNPA1 / RFU, RNF170 / Fold change vs veh, RNF170 / RFU, ZNF28 / Fold change vs veh, ZNF28 / RFU, RNGTT / Fold change vs veh, RNGTT / RFU, OGT / Fold change vs veh, OGT / RFU, BRD1 / Fold change vs veh, BRD1 / RFU, MARS / Fold change vs veh, MARS / RFU, ZNF655 / Fold change vs veh, ZNF655 / RFU, FAHD1 / Fold change vs veh, FAHD1 / RFU, BDP1 / Fold change vs veh, BDP1 / RFU, LRRCC1 / Fold change vs veh, LRRCC1 / RFU, ARID1A / Fold change vs veh, ARID1A / RFU, ZNF146 / Fold change vs veh, ZNF146 / RFU, ZNF330 / Fold change vs veh, ZNF330 / RFU, GPN3 / Fold change vs veh, GPN3 / RFU, C9orf123 / Fold change vs veh, C9orf123 / RFU, N4BP2L2 / Fold change vs veh, N4BP2L2 / RFU, ARFIP1 / Fold change vs veh, ARFIP1 / RFU, FAM179B / Fold change vs veh, FAM179B / RFU, BCL10 / Fold change vs veh, BCL10 / RFU, UHRF1BP1L / Fold change vs veh, UHRF1BP1L / RFU, BET1 / Fold change vs veh, BET1 / RFU, CNOT2 / Fold change vs veh, CNOT2 / RFU, ZNF268 / Fold change vs veh, ZNF268 / Fold change vs veh, ZNF507 / RFU, DGCR2 / Fold change vs veh, DGCR2 / RFU, WDSUB1 / Fold change vs veh, WDSUB1 / Fold change vs veh, HSP90B1 /// MIR3652 / RFU, ADSS / Fold change vs veh, ADSS / RFU, GK / Fold change vs veh, GK / RFU, ZNF148 / Fold change vs veh, ZNF148 / RFU, TAF9 / Fold change vs veh, TAF9 / RFU, SLC1A5 / Fold change vs veh, SLC1A5 / RFU, SLMO2 / Fold change vs veh, SLMO2 / RFU, ABCC4 / Fold change vs veh, ABCC4 / RFU, LOC101060439 /// RAP1B / Fold change vs veh, LOC101060439 /// RAP1B / RFU, RFX7 / Fold change vs veh, RFX7 / RFU, GTPBP10 / Fold change vs veh, GTPBP10 / RFU, CNEP1R1 / Fold change vs veh, CNEP1R1 / RFU, BIVM-ERCC5 /// ERCC5 / Fold change vs veh, BIVM-ERCC5 /// ERCC5 / RFU, ILF3 / Fold change vs veh, ILF3 / RFU 11762660_at / Fold change /veh 11762660_at / RFU VCAN (11757783_s_at) / Fold change /veh VCAN (11757783_s_at) / RFU DDX43 (11728927_at) / Fold change /veh DDX43 (11728927_at) / RFU KRT8 (11758188_x_at) / Fold change /veh KRT8 (11758188_x_at) / RFU NKD1 (11759106_at) / Fold change /veh NKD1 (11759106_at) / RFU SRD5A1 (11742802_a_at) / Fold change /veh SRD5A1 (11742802_a_at) / RFU TPSAB1 /// TPSB2 (11721975_s_at) / Fold change /veh TPSAB1 /// TPSB2 (11721975_s_at) / RFU GSTM3 (11746129_a_at) / Fold change /veh GSTM3 (11746129_a_at) / RFU IL23R (11737362_x_at) / Fold change /veh IL23R (11737362_x_at) / RFU TMEM51 (11727254_a_at) / Fold change /veh TMEM51 (11727254_a_at) / RFU PIWIL2 (11732686_x_at) / Fold change /veh PIWIL2 (11732686_x_at) / RFU ORM1 (11744905_x_at) / Fold change /veh ORM1 (11744905_x_at) / RFU CCDC152 (11743942_at) / Fold change /veh CCDC152 (11743942_at) / RFU ECM1 (11717891_a_at) / Fold change /veh ECM1 (11717891_a_at) / RFU IL23R (11748794_a_at) / Fold change /veh IL23R (11748794_a_at) / RFU TNFAIP8L3 (11732012_x_at) / Fold change /veh TNFAIP8L3 (11732012_x_at) / RFU MBOAT4 (11741988_at) / Fold change /veh MBOAT4 (11741988_at) / RFU 11764193_at / Fold change /veh 11764193_at / RFU TMEM53 (11763286_at) / Fold change /veh TMEM53 (11763286_at) / RFU MAGEB2 (11727129_at) / Fold change /veh MAGEB2 (11727129_at) / RFU TMEM200A (11744735_a_at) / Fold change /veh TMEM200A (11744735_a_at) / RFU CCDC152 (11751479_a_at) / Fold change /veh CCDC152 (11751479_a_at) / RFU FAM211A (11726209_a_at) / Fold change /veh FAM211A (11726209_a_at) / RFU RGS16 (11746705_a_at) / Fold change /veh RGS16 (11746705_a_at) / RFU VCAN (11755009_s_at) / Fold change /veh VCAN (11755009_s_at) / RFU RHOB (11743442_s_at) / Fold change /veh RHOB (11743442_s_at) / RFU RGS16 (11720943_a_at) / Fold change /veh RGS16 (11720943_a_at) / RFU RGS16 (11720944_at) / Fold change /veh RGS16 (11720944_at) / RFU, VPS4B / Fold change vs veh, VPS4B / RFU, CREB1 / Fold change vs veh, CREB1 / RFU, DNAJC13 / Fold change vs veh, DNAJC13 / RFU, GNAQ / Fold change vs veh, GNAQ / RFU, CDK5R1 / Fold change vs veh, CDK5R1 / RFU, ZRANB3 / Fold change vs veh, ZRANB3 / RFU, CUL4A / Fold change vs veh, CUL4A / RFU, CCNY / Fold change vs veh, CCNY / RFU, UFL1 / Fold change vs veh, UFL1 / RFU, COG3 / Fold change vs veh, COG3 / RFU, DIAPH2 / Fold change vs veh, DIAPH2 / RFU, SKA2 / Fold change vs veh, SKA2 / RFU, AFF3 / Fold change vs veh, AFF3 / RFU, LMF1 / Fold change vs veh, LMF1 / RFU, IPO11 / Fold change vs veh, IPO11 / RFU, DFFB / Fold change vs veh, DFFB / RFU, FOXP1 / Fold change vs veh, FOXP1 / RFU, CARD8 / Fold change vs veh, CARD8 / RFU, STRN3 / Fold change vs veh, STRN3 / RFU, ADK / Fold change vs veh, ADK / RFU, RASSF2 / Fold change vs veh, RASSF2 / RFU, WIPF1 / Fold change vs veh, WIPF1 / RFU, LARP1B / Fold change vs veh, LARP1B / RFU, RASA1 / Fold change vs veh, RASA1 / RFU, RB1 / Fold change vs veh, RB1 / RFU, PPFIA1 / Fold change vs veh, PPFIA1 / RFU, MAT2A / Fold change vs veh, MAT2A / RFU, CCT5 / Fold change vs veh, CCT5 / RFU, WDR92 / Fold change vs veh, WDR92 / RFU, CUX1 / Fold change vs veh, CUX1 / RFU, TTC7A / Fold change vs veh, TTC7A / RFU, TMEM135 / Fold change vs veh, TMEM135 / RFU, DEPTOR / Fold change vs veh, DEPTOR / RFU, CPM / Fold change vs veh, CPM / RFU, DNAJB6 / Fold change vs veh, DNAJB6 / RFU, CACNA2D3 / Fold change vs veh, CACNA2D3 / RFU, DTX4 / Fold change vs veh, DTX4 / RFU, TFCP2 / Fold change vs veh, TFCP2 / RFU, GMCL1 /// GMCL1P1 / Fold change vs veh, GMCL1 /// GMCL1P1 / RFU, AEBP2 / Fold change vs veh, AEBP2 / RFU, SNHG1 /// SNORD22 /// SNORD25 /// SNORD26 /// SNORD27 /// SNORD28 /// SNORD29 /// SNORD31 / Fold change vs veh, SNHG1 /// SNORD22 /// SNORD25 /// SNORD26 /// SNORD27 /// SNORD28 /// SNORD29 /// SNORD31 / Fold change (Aza/veh), C12orf56 (ProbeSet 11735607_a_at) / Fold change (ACY-1035/veh), C12orf56 (ProbeSet 11735607_a_at) / Fold change (Aza/veh), FGFR1OP (ProbeSet 11751329_s_at) / Fold change (ACY-1035/veh), FGFR1OP (ProbeSet 11751329_s_at) / Fold change (Aza/veh), VPS36 (ProbeSet 11739960_a_at) / Fold change (ACY-1035/veh), VPS36 (ProbeSet 11739960_a_at) / RFU SYPL1 (11715823_x_at) / Fold change /veh SYPL1 (11715823_x_at) / RFU IGFBP7 (11715501_s_at) / Fold change /veh IGFBP7 (11715501_s_at) / RFU REEP3 (11722064_at) / Fold change /veh REEP3 (11722064_at) / RFU IGLL1 (11728026_x_at) / Fold change /veh IGLL1 (11728026_x_at): dose or concentration left out as unconfirmed. The format is cell-based, human. The settings on record: MV-4-11 cells, 48 hours.

On to `Nc1ncn([C@@H]2O[C@H](CO)[C@@H](O)[C@H]2O)c(=O)n1` [azacitidine], for which the “Fold change /veh 11764193_at” value came to 1.69.
